Measured values published in patent US20060035867A1, “Methods of treating cancer and the pain associated therewith using endothelin antagonists” (priority 2000, published 2006).

Assays:
[1] = system: Crosslinked N-telopeptide (ICTP) of type I collagen; assay: Crosslinked N-Telopeptide Levels (DiaSorin ICTP radioimmunoassay); format: in vivo; conditions: hormone refractory prostate cancer subjects; 10 mg ABT-627 vs placebo; human serum; AUC in FIG. 4
Method: (§1) Studies were performed on male subjects with asymptomatic hormone refractory prostate cancer with rising PSA levels and on male subjects with symptomatic hormone refractory prostate cancer with rising PSA levels and pain. Subjects in the phase II studies had castrate levels of testosterone, either due to pharmacologic intervention, via leuprolide (Lupron®) or goserelin (Zoladex®), or via surgical castration. Subjects received ABT-627 or placebo. The following tests were conducted:
(§2) Markers of osteoblastic activity were assessed using urine samples. Bone markers include bone alkaline phosphatase (BAP), deoxypridinoline, and N-telopeptide of Type I collagen. Blood samples were collected prior to dosing on Day 1, Day 42, Day 84, Day 168, and every 28 days after Day 168, with a final collection on the last day of the study.
Cross-linked N-telopeptide levels were determined using the DiaSorin (Stillwater, Minn.) assay for the quantitative determination of carboxyterminal cross-linked telopeptide of type I collagen (ICTP) in human serum by equilibrium radioimmunoassay (RIA). Briefly, samples were incubated with the ^125I ICTP tracer and ICTP primary antibody for 2 hours at 37° C. Following the 2 hour incubation, a pre-precipitated second antibody complex was added to separate the bound from free tracer. […] The bound tracer in the pellet was counted with a gamma counter. […]

[2] = system: male subjects with hormone refractory prostate cancer; assay: Bone scan (Tc-99m phosphonate, bone scan index); format: in vivo, human; conditions: 10 mg ABT-627 versus placebo, FIG. 6
Method: as §1
Bone scans were performed with an NDA approved, Tc-99m phosphonate type radiopharmaceutical. […] Each site was evaluated against a confidence score of 1 to 5, where 1 is negative, 2 is probably negative, 3 is equivocal, 4 is probably positive, and 5 is definitely positive. […] In addition, in a blinded study, a reference nuclear medicine physician interpreted the bone scans quantitatively as follows: the percent of involved bone was estimated for each individual bone, and the individual bone involvement was summed to calculate a global percent bone scan index (BSI). […]
Bone scans were conducted on each subject on day one of the study, and on the final day of the study, and the changes from baseline in bone scan index scores were analysed by mean change and mean percent change, adjusting for baseline characteristics as co-variates using SAS version XXX software.

[3] = system: bone alkaline phosphatase (BAP); assay: Bone Alkaline Phosphatase levels (Alkphase-B assay); format: in vivo, human; conditions: hormone refractory prostate cancer subjects; 10 mg ABT-627 vs placebo; AUC in FIG. 5
Method: as §1, §2
Bone Alkaline Phosphatase levels were determined using the bone-specific Alkphase-B® assay published by Metra Biosystems (Mountain View, Calif.).

[4] = system: prostate specific antigen (PSA); assay: Prostate Specific Antigen Level Assay (Chiron ACS: Centaur PSA2, serum of treated subjects); format: in vivo, human; conditions: hormone refractory prostate cancer subjects; 2.5 mg or 10 mg ABT-627 vs placebo; AUC in FIG. 2
Method: as §1
(§3) A number of recognized or putative biochemical markers of disease progression have been used to monitor treatment of individuals with prostate cancer. Among these markers are serum Prostate Specific Antigen (PSA), serum acid Phosphatase, Interleukin-6, and Chromagranin-A. As currently accepted, favorable treatment is marked by a decrease or slower rate of increase for PSA, acid phosphatase, and Interleukin-6, while a favorable response is marked by an increase in Chromagranin-A. […]
The effect of ABT-627 administeration on prostate specific antigen (PSA) levels in human subject serum samples was determined using the procedure described in the Chiron Diagnostics ACS: Centaur PSA2 Assay. […]
Briefly, a subject population was treated with a placebo or 2.5 mg or 10 mg of ABT-627. […] A direct relationship exists between the amount of PSA present in the patient sample and the RLU's (relative light units) detected.

[5] = system: Interleukin-6; assay: Interleukin-6 Levels (sandwich immunoassay, serum of treated subjects); format: in vivo, human; conditions: hormone refractory prostate cancer subjects, 2.5 mg or 10 mg ABT-627 vs placebo, AUC FIG. 1
Method: as §1, §3
The effect of ABT-627 adminstration on Interleukin-6 levels in human serum samples was determined at Quintiles Laboratories using a sandwich immunoassay. […] After incubation, the wells were washed, and the bound enzymatic activity was measured using a chromogenic substrate. […]

[6] = system: Chromagranin-A; assay: Chromagranin-A Levels (two site chemiluminescence assay, serum of treated subjects); format: in vivo, human; conditions: hormone refractory prostate cancer subjects, 2.5 mg/day of ABT-627, AUC in FIG. 8
Method: as §1, §3
The effect of ABT-627 adminstration on Chromagranin-A levels in human serum samples was determined by proprietary assay conducted at the Nichols Institute. […] The bound, acridinium-labeled material produces light that is detected in a luminometer after addition of triggering agents. […]

[7] = system: male subjects with symptomatic hormone refractory prostate cancer with rising PSA levels and pain; assay: Visual Analog Scale (VAS) pain assessment; format: in vivo, human; conditions: 2.5 mg or 10 mg ABT-627 vs placebo, independent of the effects of morphine, AUC in FIG. 3
Method: Studies were performed on male subjects with asymptomatic hormone refractory prostate cancer with rising PSA levels and on male subjects with symptomatic hormone refractory prostate cancer with rising PSA levels and pain. Subjects in the phase II studies had castrate levels of testosterone, either due to pharmacologic intervention, via leuprolide (Lupron®) or goserelin (Zoladex®), or via surgical castration. Subjects received ABT-627 or placebo. The following tests were conducted: […]
During the course of the study, pain asessments were done daily, at bedtime, by the subject. […] The log also contained a table on which was recorded all daily pain medication consumed by the patient. […] Clinical personnel who received the logs measured the score by measuring the distance (in mm) from the “no pain” end mark to the point where the subject's line crossed the VAS line. […]
The weekly VAS scores were calculated excluding the lowest and highest score for each week and averaging the remaining five scores. […]
Weekly VAS scores are examined using a longitudinal analysis method to explore trends over time. The duration of the response, defined as the time from baseline to the last weekly assessment for which the responder definition was satisfied, was analyzed using the Kaplan-Meier methodology and logrank test.

[8] = system: Acid Phosphatase (ACP); assay: Acid Phosphatase Levels (Sigma Diagnostics ACP Procedure No. 435, serum of treated subjects); format: in vivo, human; conditions: hormone refractory prostate cancer subjects, ABT-627 vs placebo, AUC in FIG. 7 (10 mg)
Method: as §1
A number of recognized or putative biochemical markers of disease progression have been used to monitor treatment of individuals with prostate cancer. […]
The effect of ABT-627 administeration on Acid Phosphatase levels in human subject serum samples was determined at Quintiles Laboratories using the chemical test described in Sigma Diagnostics Acid Phosphatase (ACP) Procedure No. 435. […] The alpha-naphthol immediately reacts with fast red TR salt to produce a yellow chromophore with an absorbance maximum at 405 nm. The rate of increase in absorbance at 405 nm is directly proportional to ACP activity in the sample. ACP activity was determined in the presence and absence of L-tartrate, the difference being attributed to prostatic acid phosphatase activity. […]

CCCCN(CCCC)C(=O)CN1C[C@H](c2ccc3c(c2)OCO3)[C@@H](C(=O)O)[C@@H]1c1ccc(OC)cc1 [ABT-627]
Crosslinked N-telopeptide levels [1]: decreased
proportion of total skeletal involvement (bone scan) [2]: decrease in the proportion of total skeketal involvement
BAP levels [3]: decreased
rate of increase of PSA in the serum samples [4]: decreases
average change in baseline for Interleukin-6 [5]: lower
average change from baseline for Chromagranin-A [6]: higher
VAS scores (pain) [7]: decrease in pain
average change from baseline for acid phosphatase [8]: decreased
rate of increase for acid phosphatase [8]: decreased
